Data from EPA's ToxValDB 9.5.

Tested on: Rattus norvegicus
Conditions: oral, gavage
[1] = developmental, duration: 14 days, M/F, Crl:CD(SD), generation: F1, F1: Developmental: Bone: Skeletal Malformation + F1: Developmental: Whole Body: Nursing Behavior + F1: Developmental: Whole Body: Pup Weight…
[2] = developmental, duration: 14 days, M/F, Crl:CD(SD), generation: F1, F1: Pelvis: Pelvis, Ischium Incompletely Ossified + F1: Pelvis: Pelvis, Pubis Incompletely Ossified + F1: Skull: Interparietal, Incomplete …
[3] = developmental, duration: 14 days, M/F, Crl:CD(SD), generation: F1, F1: Skull: Supraoccipital, Incomplete Ossification
[4] = developmental, duration: 14 days, M/F, Sprague-Dawley, generation: F1, F1: Developmental: Pelvic Girdle: Ischium, Incomplete Ossification + F1: Developmental: Pelvic Girdle: Pubis, Incomplete Ossification + F1: …
[5] = developmental, duration: 14 days, M/F, Sprague-Dawley, generation: F1, F1: Developmental: Pelvis: Pelvis, Ischium Incompletely Ossified + F1: Developmental: Pelvis: Pelvis, Pubis Incompletely Ossified + F1: …
[6] = developmental, duration: 14 days, M/F, Sprague-Dawley, generation: F1, F1: Pelvic Girdle: Ischium, Incomplete Ossification + F1: Pelvic Girdle: Pubis, Incomplete Ossification + F1: Rib: Rib, Thick + F1: Rib: Rib…
[7] = developmental, M/F, Sprague-Dawley, generation: F1, F1: Developmental: Whole Body: Lactation Index + F1: Developmental: Whole Body: Live Pups Born + F1: Developmental: Whole Body: No. of Pups …
[8] = reproduction developmental, duration: 14 days, F, Crl:CD(SD), generation: P0, P0: Developmental: Uterus: Implantation + P0: General Toxicity: Whole Body: Necropsy Appeared Normal + P0: Reproductive: Ovary: Corpora …
[9] = reproduction developmental, duration: 14 days, F, Crl:CD(SD), generation: P0, P0: Developmental: Uterus: Implantation + P0: Reproductive: Whole Body: Length of Gestation
[10] = reproduction developmental, duration: 14 days, F, Crl:CD(SD), generation: P0, P0: Whole Body: Clinical Observations + P0: Whole Body: Maternal Body Weight + P0: Whole Body: Maternal Body Weight Change + P0: Whole Body…
[11] = reproduction developmental, duration: 14 days, F, Crl:CD(SD), generation: P0, P0: Whole Body: Maternal Body Weight Change, Corrected
[12] = reproduction developmental, duration: 14 days, F, Sprague-Dawley, generation: P0, P0: Developmental: Uterus: Implantation + P0: Developmental: Uterus: Resorptions, Early + P0: Developmental: Uterus: Resorptions, Late + P0…
[13] = reproduction developmental, duration: 14 days, F, Sprague-Dawley, generation: P0, P0: Whole Body: Maternal Body Weight + P0: Whole Body: Maternal Body Weight Change + P0: Whole Body: Maternal Body Weight, Corrected
[14] = reproduction developmental, duration: 14 days, M/F, Crl:CD(SD), generation: F1, F1: Whole Body: Pup Weight + F1: Whole Body: Viability Index
[15] = reproduction developmental, duration: 70 days, F, Crl:CD(SD), generation: P0, P0: Uterus: Uterus (With Cervix) Weight, Absolute + P0: Whole Body: Clinical Observations + P0: Whole Body: Maternal Food Consumption, …
[16] = reproduction developmental, duration: 70 days, F, Crl:CD(SD), generation: P0, P0: Uterus: Uterus (With Cervix) Weight, Relative + P0: Whole Body: Maternal Body Weight Change + P0: Whole Body: Mortality + P0: Whole Body…
[17] = reproduction developmental, duration: 70 days, M/F, Crl:CD(SD), generation: F1, F1: Whole Body: Clinical Observations + F1: Whole Body: Lactation Index + F1: Whole Body: Pup Mortality + F1: Whole Body: Pup Weight …
[18] = reproduction developmental, duration: 70 days, M/F, Crl:CD(SD), generation: F1, F1: Whole Body: Pup Mortality + F1: Whole Body: Pup Weight Relative to Litter
[19] = reproduction developmental, duration: 70 days, M, Crl:CD(SD), generation: P0, P0: Whole Body: Clinical Observations + P0: Whole Body: Mortality
[20] = reproduction developmental, duration: 70 days, M, Crl:CD(SD), generation: P0, P0: Whole Body: Terminal Body Weight, Absolute
[21] = reproduction developmental, duration: 84 days, M, Crl:CD(SD), generation: P0, P0: Seminal Vesicle: Seminal Vesicle Weight, Absolute + P0: Seminal Vesicle: Seminal Vesicle Weight, Relative + P0: Whole Body: Clinical …
[22] = reproduction developmental, duration: 84 days, M, Crl:CD(SD), generation: P0, P0: Whole Body: Body Weight Change + P0: Whole Body: Terminal Body Weight, Absolute
[23] = reproduction developmental, duration: 131 days, F, Crl:CD(SD), generation: P0, P0: Uterus: Uterus Weight, Absolute + P0: Uterus: Uterus Weight, Relative + P0: Whole Body: Clinical Observations
[24] = reproduction developmental, duration: 131 days, F, Crl:CD(SD), generation: P0, P0: Whole Body: Body Weight Change + P0: Whole Body: Body Weight, Absolute + P0: Whole Body: Mortality
[25] = reproduction developmental, duration: 131 days, M/F, Crl:CD(SD), generation: F1, F1: Kidney: Kidney Abnormalities + F1: Whole Body: Clinical Observations + F1: Whole Body: Dams with Liveborn Pups + F1: Whole Body: …
[26] = reproduction developmental, duration: 131 days, M/F, Crl:CD(SD), generation: F1, F1: Whole Body: Pup Weight Relative to Litter
[27] = reproduction developmental, F, Sprague-Dawley, generation: P0, P0: Developmental: Uterus: Implantation + P0: Developmental: Whole Body: No. Male Pups per No. of Pups Sexed + P0: Endocrine: Pituitary: …
[28] = reproduction developmental, F, Sprague-Dawley, generation: P0, P0: Developmental: Uterus: Implantation + P0: Developmental: Whole Body: No. Male Pups per No. of Pups Sexed + P0: General Toxicity: Whole …

- LEL [2]: 250 mg/kg-day
- NEL [2]: 125 mg/kg-day
- NEL (developmental, duration: 14 days, M/F, Crl:CD(SD), generation: F1, F1: Skull: Frontal, Incomplete Ossification + F1: Skull: Zygomatic Arch, Incomplete Ossification + F1: Uterus: Fetuses, Dead + F1: Uterus: …): 250 mg/kg-day
- LEL [3]: 125 mg/kg-day
- NEL [3]: 25 mg/kg-day
- LEL [6]: 250 mg/kg-day
- NEL [6]: 125 mg/kg-day
- NEL (reproduction developmental, duration: 14 days, F, Crl:CD(SD), generation: P0, P0: Ovary: Corpora Lutea + P0: Uterus: Implantation + P0: Uterus: Resorptions, Early + P0: Uterus: Resorptions, Late + P0: Uterus: …): 250 mg/kg-day
- NEL (reproduction developmental, duration: 14 days, F, Sprague-Dawley, generation: P0, P0: Macroscopic Observations + P0: Ovary: Corpora Lutea + P0: Uterus: Implantation + P0: Uterus: Resorptions, Early + P0: Uterus: …): 250 mg/kg-day
- NEL (reproduction developmental, duration: 14 days, M/F, Crl:CD(SD), generation: F1, F1: Whole Body: Nursing Behavior + F1: Whole Body: Skeletal Malformation): 225 mg/kg-day
- NEL (reproduction developmental, duration: 70 days, F, Crl:CD(SD), generation: P0, P0: Lung: Lung Histopathology + P0: Mammary Gland: Mammary Gland Histopathology + P0: Ovaries: Ovary Histopathology + P0: Ovary: Ovary …): 250 mg/kg-day
- LEL [15]: 125 mg/kg-day
- NEL [15]: 25 mg/kg-day
- NEL (reproduction developmental, duration: 70 days, M, Crl:CD(SD), generation: P0, P0: Epididymides: Epididymides Histopathology + P0: Epididymis: Epididymis Weight, Left, Absolute + P0: Epididymis: Epididymis Weight, Left…): 250 mg/kg-day
- NEL (reproduction developmental, duration: 84 days, M, Crl:CD(SD), generation: P0, P0: Epididymis: Epididymis Histopathology + P0: Epididymis: Epididymis Weight, Absolute + P0: Epididymis: Epididymis Weight, Relative + P0: …): 250 mg/kg-day
- LEL [21]: 125 mg/kg-day
- NEL [21]: 25 mg/kg-day
- NEL (reproduction developmental, duration: 131 days, F, Crl:CD(SD), generation: P0, P0: Bladder: Urinary Bladder Histopathology + P0: Kidney: Kidney Histopathology + P0: Lung: Lung Histopathology + P0: Ovary: Ovary …): 250 mg/kg-day
- LEL [23]: 125 mg/kg-day
- NEL [23]: 25 mg/kg-day
- LEL [25]: 250 mg/kg-day
- NEL [25]: 125 mg/kg-day
- LEL [26]: 125 mg/kg-day
- NEL [26]: 25 mg/kg-day
Compound: OCCC(F)(F)C(F)(F)C(F)(F)C(F)(F)C(F)(F)C(F)(F)F [2-(Perfluorohexyl)ethanol]
- LOAEL [1]: 225 mg/kg-day
- NOAEL [1]: 75 mg/kg-day
- LOAEL [4]: 125 mg/kg-day
- NOAEL [4]: 25 mg/kg-day
- LOAEL [5]: 125 mg/kg-day
- NOAEL [5]: 25 mg/kg-day
- LOAEL [7]: 125 mg/kg-day
- NOAEL [7]: 25 mg/kg-day
- LOAEL [8]: 225 mg/kg-day
- NOAEL [8]: 75 mg/kg-day
- LOAEL [9]: 225 mg/kg-day
- NOAEL [9]: 75 mg/kg-day
- NEL (reproduction developmental, duration: 14 days, F, Crl:CD(SD), generation: P0, P0: Ovary: Corpora Lutea + P0: Uterus: Implantation + P0: Whole Body: Length of Gestation + P0: Whole Body: Necropsy Appeared Normal + P0: …): 225 mg/kg-day
- NOAEL (reproduction developmental, duration: 14 days, F, Crl:CD(SD), generation: P0, P0: Reproductive: Ovary: Corpora Lutea + P0: Reproductive: Whole Body: Reproductive Performance): 225 mg/kg-day
- LEL [10]: 250 mg/kg-day
- NEL [10]: 125 mg/kg-day
- LEL [11]: 125 mg/kg-day
- NEL [11]: 25 mg/kg-day
- LOAEL [12]: 125 mg/kg-day
- NOAEL [12]: 25 mg/kg-day
- NOAEL (reproduction developmental, duration: 14 days, F, Sprague-Dawley, generation: P0, P0: Reproductive: Ovary: Corpora Lutea + P0: Reproductive: Uterus: Uterine Weight, Gravid): 250 mg/kg-day
- LEL [13]: 250 mg/kg-day
- NEL [13]: 125 mg/kg-day
- LEL [14]: 225 mg/kg-day
- NEL [14]: 75 mg/kg-day
- NEL (reproduction developmental, duration: 34 days, M, Crl:CD(SD), generation: P0, P0: Central Nervous System: Latency to mount + P0: Whole Body: Necropsy Appeared Normal): 225 mg/kg-day
- LEL [16]: 250 mg/kg-day
- NEL [16]: 125 mg/kg-day
- LEL [17]: 250 mg/kg-day
- NEL [17]: 125 mg/kg-day
- NEL (reproduction developmental, duration: 70 days, M/F, Crl:CD(SD), generation: F1, F1: Whole Body: Live Pups Born + F1: Whole Body: Mean Pups Delivered + F1: Whole Body: Pup Mortality): 250 mg/kg-day
- LEL [18]: 125 mg/kg-day
- NEL [18]: 25 mg/kg-day
- LEL [19]: 125 mg/kg-day
- NEL [19]: 25 mg/kg-day
- LEL [20]: 250 mg/kg-day
- NEL [20]: 125 mg/kg-day
- LEL [22]: 250 mg/kg-day
- NEL [22]: 125 mg/kg-day
- LEL [24]: 250 mg/kg-day
- NEL [24]: 125 mg/kg-day
- NEL (reproduction developmental, duration: 131 days, M/F, Crl:CD(SD), generation: F1, F1: Whole Body: Dams with Stillborn Pups + F1: Whole Body: Live Pups Born + F1: Whole Body: Surviving Pups Per Litter): 250 mg/kg-day
- LOAEL [27]: 125 mg/kg-day
- NOAEL [27]: 25 mg/kg-day
- LOAEL [28]: 125 mg/kg-day
- NOAEL [28]: 25 mg/kg-day
- NOAEL (reproduction developmental, F, Sprague-Dawley, generation: P0, P0: Endocrine: Pituitary: Pituitary Gland Histopathology + P0: Endocrine: Pituitary: Pituitary Gland Weight, Absolute + P0: Endocrine: …): 250 mg/kg-day
- LOAEL (reproduction developmental, M/F, Crl:CD(SD), generation: P0, P0: Reproductive: Whole Body: Gestation Index): 125 mg/kg-day
